In patent US20240059703A1 (AMGEN INC., priority 2021, published 2024):

Assays:
[1] = test system: MIA PaCa-2 (human pancreatic carcinoma) cells; assay: Cell Viability Assay (CellTiter-Glo), MIA PaCa-2; type: cell-based; conditions: Homo sapiens, MIA PaCa-2, 72 h
Method: Serially-diluted compound or DMSO was added to the cells, and plates were incubated at 37° C., 5% CO2 for 72 h. Cell viability was measured using a CellTiter-Glo® Luminescent Cell Viability Assay kit (Promega) according to the manufacturer's protocol. The luminescence signal of treated samples was normalized to DMSO control, and data were analyzed using a 4-parameter logistic model to calculate IC50 values.

[2] = test system: A549 (human lung carcinoma) cells; assay: Cell Viability Assay (CellTiter-Glo), A549; type: cell-based; conditions: Homo sapiens, A549, 72 h
How it was run: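 Seeding at 1.67E+04 cells/mL is followed by overnight attachment at 37° C., 5% CO2. Serially diluted compound is added for 72 h. Viability is read by CellTiter-Glo luminescence, scaled to DMSO and fitted (4-parameter logistic) to give IC50.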

[3] = molecular target: KRAS G12C (Homo sapiens (Human), UniProt P01116, C118A/G12C); assay: 2 h coupled exchange assay; type: biochemical; conditions: Avg 2 h Coupled exchange IC50, 2 h compound pre-incubation
Method: The term “2 h coupled exchange assay” or “20 h coupled exchange assay” as used herein refers to the assay described in the Section entitled “BIOLOGICAL EVALUATION.”

[4] = SOS-mediated nucleotide exchange

KRAS G12C, sequence (P01116 other isoform, or with tags, fused parts or gaps G12C/C118A): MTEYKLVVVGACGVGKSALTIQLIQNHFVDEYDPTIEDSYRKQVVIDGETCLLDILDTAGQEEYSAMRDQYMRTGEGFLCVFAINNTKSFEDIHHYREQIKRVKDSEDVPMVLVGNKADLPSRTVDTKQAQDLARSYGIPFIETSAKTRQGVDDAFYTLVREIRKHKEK

Structure (SMILES)	IC50 [1]	IC50 [2]	IC50 [3, 4]	IC50 [3]
C=CC(=O)N1CC2(CCN(c3nc4c(c(-c5c(C(C)C)ccc6[nH]ncc56)n3)CCCC4)C2)C1 [Example 1-35, 1-(6-(4-(5-(2-propanyl)-1H-indazol-4-yl)-5,6,7,8-tetrahydro-2-quinazolinyl)-2,6-diazaspiro[3.4]octan-2-yl)-2-propen-1-one]	2.37 µM	7.12 µM	1.55 µM	–
C=CC(=O)N1CC2(CCN(c3nc4c(c(-c5cccc6cn[nH]c56)c3C#N)C[C@H]3C[C@@H]4C3(C)C)C2)C1 [Example 14-25, (1R,9R)-6-(1H-indazol-7-yl)-10,10-dimethyl-4-(2-(2-propenoyl)-2,6-diazaspiro[3.4]octan-6-yl)-3-azatricyclo[7.1.1.0^2,7]undeca-2,4,6-triene-5-carbonitrile]	0.669 µM	> 5 µM	–	0.11 µM
C=CC(=O)N1CC2(CCN(c3nc4c(c(-c5c(C)c(C)cc6cnn(C)c56)c3C)COC(C)(C)C4)C2)C1 (single isomer, unassigned) [Example 14-41, (P)-1-(6-(3,7,7-trimethyl-4-(1,5,6-trimethyl-1H-indazol-7-yl)-7,8-dihydro-5H-pyrano[4,3-b]pyridin-2-yl)-2,6-diazaspiro[3.4]octan-2-yl)-2-propen-1-one]	0.408 µM	> 5 µM	–	0.066 µM
C=CC(=O)N1CC2(CCN(c3nc4cc(C5CC5)ccc4c(-c4c(C)ccc5[nH]ncc45)c3C#N)C2)C1 [Example 14-19, 7-cyclopropyl-4-(5-methyl-1H-indazol-4-yl)-2-(2-(2-propenoyl)-2,6-diazaspiro[3.4]octan-6-yl)-3-quinolinecarbonitrile]	1.69 µM	> 5 µM	–	0.13 µM
C=CC(=O)N1CC2(CCN(c3nc4cc(OC)ccc4c(-c4ccccc4Cl)c3C#N)C2)C1 [Example 20-5, 4-(2-chlorophenyl)-7-methoxy-2-(2-(2-propenoyl)-2,6-diazaspiro[3.4]octan-6-yl)-3-quinolinecarbonitrile]	5.51 µM	9.11 µM	–	0.572 µM

These reach a lower IC50 [1]. Values come first.

IC50 [1]	IC50 [2]	IC50 [3, 4]	IC50 [3]	Structure (SMILES)
0.196 µM	> 5 µM	–	0.178 µM	C=CC(=O)N1CC2(CCN(c3nc4c(c(-c5ccccc5F)c3C#N)CCN(C(C)CN(C)C)C4)C2)C1 [Example 21-38, 7-((2R)-1-(dimethylamino)-2-propanyl)-4-(2-fluorophenyl)-2-(2-(2-propenoyl)-2,6-diazaspiro[3.4]octan-6-yl)-5,6,7,8-tetrahydro-1,7-naphthyridine-3-carbonitrile 7-((2S)-1-(dimethylamino)-2-propanyl)-4-(2-fluorophenyl)-2-(2-(2-propenoyl)-2,6-diazaspiro[3.4]octan-6-yl)-5,6,7,8-tetrahydro-1,7-naphthyridine-3-carbonitrile]
0.044 µM	> 5 µM	–	0.071 µM	C=CC(=O)N1CC2(CCN(c3nc4c(c(-c5cccc6cc(O)ccc56)c3C)COC(C)(C)C4)C2)C1 (single isomer, unassigned) [Example 14-44, (P)-1-(6-(4-(6-hydroxy-1-naphthalenyl)-3,7,7-trimethyl-7,8-dihydro-5H-pyrano[4,3-b]pyridin-2-yl)-2,6-diazaspiro[3.4]octan-2-yl)-2-propen-1-one]
0.146 µM	> 5 µM	0.063 µM	–	C=CC(=O)N1CC2(CCN(c3nc4c(c(-c5c(C)ccc6cnn(C)c56)c3C#N)COC(C)(C)C4)C2)C1 (single isomer, unassigned) [Example 13-60, (P)-4-(1,6-dimethyl-1H-indazol-7-yl)-7,7-dimethyl-2-(2-(2-propenoyl)-2,6-diazaspiro[3.4]octan-6-yl)-7,8-dihydro-5H-pyrano[4,3-b]pyridine-3-carbonitrile]
0.02 µM	> 5 µM	–	0.016 µM	C=CC(=O)N1CC2(CCN(c3nc4c(c(-c5c(C)c(Cl)cc6cn[nH]c56)c3C#N)COC(C)(C)C4)C2)C1 [Example 14-91, 4-(5-chloro-6-methyl-1H-indazol-7-yl)-7,7-dimethyl-2-(2-(2-propenoyl)-2,6-diazaspiro[3.4]octan-6-yl)-7,8-dihydro-5H-pyrano[4,3-b]pyridine-3-carbonitrile]
